Results taken from ChEMBL document CHEMBL1121575, “Synthesis and biological activity of some 15-oxaestranes” (J Med Chem, 1980).
One block for each compound: values may come before it.

Key:
[1] = biological target: T1, Estrogen receptor (Rattus norvegicus) (UniProt P06211+Q62986); assay: Oral estrogenic activity in uterotropic assay in rats at 40-400 ng dose; assay type: functional
[2] = biological target: T1, Estrogen receptor (Rattus norvegicus)
Description: Oral estrogenic activity in uterotropic assay in rats at 400-4000ng dose

[3] = biological target: T1, Estrogen receptor (Rattus norvegicus); assay: Oral estrogenic activity in uterotropic assay in rats at 40-1000 ng dose; assay type: functional
[4] = biological target: T1, Estrogen receptor (Rattus norvegicus); assay: Oral estrogenic activity in uterotropic assay in rats at 20-200 ng dose; assay type: functional
[5] = biological target: T1, Estrogen receptor (Rattus norvegicus); remark: listed apart in the source
Description: Oral estrogenic activity in uterotropic assay in rats at 100-1000 ng dose

Weight [3]: -52.2 mg
Structure (SMILES): CC12CCC3c4ccc(OC5CCCC5)cc4CCC3C1OCC2=O (stereo not given)

Weight [5]: -23.9 mg
Structure (SMILES): C#C[C@]1(O)COC2C3CCc4cc(OC)ccc4C3CCC21C (stereo not given in full)

The next lines start with the compound.

Structure (SMILES): CC12CCC3c4ccc(O)cc4CCC3C1OCC2=O (stereo not given)
Weight [1]: -32.1 mg

Structure (SMILES): C[C@]12CC[C@@H]3c4ccc(O)cc4CC[C@H]3[C@@H]1CCC2=O
Weight [2]: -120 mg

Structure (SMILES): CC12CCC3c4ccc(O)cc4CCC3C1OC[C@@H]2O (stereo not given in full)
Weight [4]: -7.8 mg
